Test results reported in ChEMBL document CHEMBL1152560, “Substituted 2-arylbenzothiazoles as kinase inhibitors: hit-to-lead optimization” (Bioorg Med Chem, 2009).

Legend:
[1] = target: Eukaryotic translation initiation factor 2-alpha kinase 1 (Homo sapiens) (UniProt Q9BQI3); experiment: Residual activity of HRI at 1 uM by microplate scintillation counting
[2] = test system: Fibroblast growth factor receptor 1 (Homo sapiens), P11362 [V561M]; experiment: Residual activity of FGFR1 V561M mutant at 10 uM by microplate scintillation counting
Chain of Fibroblast growth factor receptor 1 (Homo sapiens), P11362 [V561M] (P11362 whole entry V561M): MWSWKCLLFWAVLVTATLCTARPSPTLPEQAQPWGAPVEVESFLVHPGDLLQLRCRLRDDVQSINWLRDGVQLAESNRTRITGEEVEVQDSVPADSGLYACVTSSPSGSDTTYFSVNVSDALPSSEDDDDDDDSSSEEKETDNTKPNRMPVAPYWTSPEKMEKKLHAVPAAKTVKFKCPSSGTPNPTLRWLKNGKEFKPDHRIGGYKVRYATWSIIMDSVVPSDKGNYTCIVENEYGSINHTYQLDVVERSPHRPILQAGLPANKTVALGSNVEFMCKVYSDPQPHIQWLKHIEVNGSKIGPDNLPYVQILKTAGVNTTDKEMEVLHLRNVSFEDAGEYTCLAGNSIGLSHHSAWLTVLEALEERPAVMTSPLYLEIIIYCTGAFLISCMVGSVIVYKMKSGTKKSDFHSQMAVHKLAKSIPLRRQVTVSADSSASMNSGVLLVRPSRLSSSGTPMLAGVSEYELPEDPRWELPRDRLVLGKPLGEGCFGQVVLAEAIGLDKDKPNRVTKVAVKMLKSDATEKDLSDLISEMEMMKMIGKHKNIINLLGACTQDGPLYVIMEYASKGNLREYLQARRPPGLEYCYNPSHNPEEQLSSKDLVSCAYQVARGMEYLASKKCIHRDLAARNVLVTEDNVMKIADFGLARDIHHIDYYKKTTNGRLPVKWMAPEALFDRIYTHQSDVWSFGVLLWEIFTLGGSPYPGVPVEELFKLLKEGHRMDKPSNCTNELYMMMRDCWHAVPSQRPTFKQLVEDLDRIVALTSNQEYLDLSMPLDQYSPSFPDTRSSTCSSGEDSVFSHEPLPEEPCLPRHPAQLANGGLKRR

[3] = target: Tyrosine-protein kinase Fyn (Homo sapiens) (UniProt P06241); experiment: Residual activity of FYN at 0.1 uM by microplate scintillation counting
Chain of Tyrosine-protein kinase Fyn (Homo sapiens) (P06241 2-537 limits assumed): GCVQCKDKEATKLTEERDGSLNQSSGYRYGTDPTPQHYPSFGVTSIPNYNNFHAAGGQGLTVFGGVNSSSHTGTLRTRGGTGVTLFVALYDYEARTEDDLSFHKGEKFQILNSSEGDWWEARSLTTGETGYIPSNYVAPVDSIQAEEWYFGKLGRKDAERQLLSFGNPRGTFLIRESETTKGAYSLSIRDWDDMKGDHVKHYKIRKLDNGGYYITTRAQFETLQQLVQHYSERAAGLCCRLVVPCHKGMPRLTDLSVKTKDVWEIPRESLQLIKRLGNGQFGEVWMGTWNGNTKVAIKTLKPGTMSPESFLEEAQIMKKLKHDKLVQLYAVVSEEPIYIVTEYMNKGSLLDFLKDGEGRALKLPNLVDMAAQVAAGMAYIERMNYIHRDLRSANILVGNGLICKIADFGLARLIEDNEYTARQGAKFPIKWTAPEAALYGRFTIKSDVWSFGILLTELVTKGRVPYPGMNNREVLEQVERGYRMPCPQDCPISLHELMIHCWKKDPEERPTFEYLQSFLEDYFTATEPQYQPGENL

[4] = target: T1, Tyrosine-protein kinase JAK3 (Homo sapiens) (UniProt P52333); experiment: Residual activity of JAK3 at 10 uM by microplate scintillation counting
T1 sequence (whole entry): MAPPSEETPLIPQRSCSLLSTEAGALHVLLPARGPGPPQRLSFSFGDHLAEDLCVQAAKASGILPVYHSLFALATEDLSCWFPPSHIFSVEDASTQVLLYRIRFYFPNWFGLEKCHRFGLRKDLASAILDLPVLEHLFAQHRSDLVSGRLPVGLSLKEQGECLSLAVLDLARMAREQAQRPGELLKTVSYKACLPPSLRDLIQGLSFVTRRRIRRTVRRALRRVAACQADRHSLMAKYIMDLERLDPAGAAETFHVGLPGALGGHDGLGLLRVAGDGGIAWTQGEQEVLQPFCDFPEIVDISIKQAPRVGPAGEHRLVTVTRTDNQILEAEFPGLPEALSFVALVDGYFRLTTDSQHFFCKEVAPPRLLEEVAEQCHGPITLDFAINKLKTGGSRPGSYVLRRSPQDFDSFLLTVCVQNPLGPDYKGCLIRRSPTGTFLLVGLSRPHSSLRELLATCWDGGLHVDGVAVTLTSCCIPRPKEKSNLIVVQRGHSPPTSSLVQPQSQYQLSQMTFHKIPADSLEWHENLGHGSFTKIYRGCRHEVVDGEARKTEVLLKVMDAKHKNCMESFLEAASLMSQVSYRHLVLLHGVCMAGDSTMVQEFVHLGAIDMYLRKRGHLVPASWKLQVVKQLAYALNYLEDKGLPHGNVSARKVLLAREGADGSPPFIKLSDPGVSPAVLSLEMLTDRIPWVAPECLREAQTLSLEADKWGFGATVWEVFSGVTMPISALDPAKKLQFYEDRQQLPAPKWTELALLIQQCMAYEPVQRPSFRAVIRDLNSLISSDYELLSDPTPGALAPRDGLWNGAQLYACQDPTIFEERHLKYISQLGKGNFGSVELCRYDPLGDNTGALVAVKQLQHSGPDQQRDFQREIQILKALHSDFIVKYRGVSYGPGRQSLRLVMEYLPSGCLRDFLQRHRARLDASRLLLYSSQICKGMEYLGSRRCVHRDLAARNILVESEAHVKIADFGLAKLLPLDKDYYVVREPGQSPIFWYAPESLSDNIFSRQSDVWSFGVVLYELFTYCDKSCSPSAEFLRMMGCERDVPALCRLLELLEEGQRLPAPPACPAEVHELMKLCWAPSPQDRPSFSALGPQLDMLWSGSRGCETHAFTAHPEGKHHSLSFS

[5] = target: Dual specificity tyrosine-phosphorylation-regulated kinase 1B (Homo sapiens) (UniProt Q9Y463); experiment: Residual activity of DYRK1B at 10 uM by microplate scintillation counting
Chain of Dual specificity tyrosine-phosphorylation-regulated kinase 1B (Homo sapiens) (Q9Y463 whole entry, looked up): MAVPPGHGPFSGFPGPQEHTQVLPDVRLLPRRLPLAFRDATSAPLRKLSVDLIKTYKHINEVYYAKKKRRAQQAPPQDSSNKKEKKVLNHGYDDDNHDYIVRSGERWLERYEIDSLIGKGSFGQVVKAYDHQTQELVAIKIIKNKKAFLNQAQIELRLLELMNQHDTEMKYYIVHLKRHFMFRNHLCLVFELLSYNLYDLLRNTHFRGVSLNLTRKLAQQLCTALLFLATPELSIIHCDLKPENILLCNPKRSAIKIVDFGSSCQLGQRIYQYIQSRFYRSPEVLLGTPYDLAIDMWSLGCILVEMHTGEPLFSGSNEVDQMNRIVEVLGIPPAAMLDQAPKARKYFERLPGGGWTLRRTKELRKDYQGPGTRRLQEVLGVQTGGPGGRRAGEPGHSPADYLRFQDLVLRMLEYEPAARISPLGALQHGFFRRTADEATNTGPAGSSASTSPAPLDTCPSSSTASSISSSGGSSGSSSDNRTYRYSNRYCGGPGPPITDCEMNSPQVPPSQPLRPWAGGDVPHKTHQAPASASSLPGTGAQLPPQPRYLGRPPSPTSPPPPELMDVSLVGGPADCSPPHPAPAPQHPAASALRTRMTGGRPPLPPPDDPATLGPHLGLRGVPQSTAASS

[6] = target: T2, Tyrosine-protein kinase Tec (Homo sapiens) (UniProt P42680); experiment: Residual activity of TEC at 1 uM by microplate scintillation counting
T2 sequence (whole entry): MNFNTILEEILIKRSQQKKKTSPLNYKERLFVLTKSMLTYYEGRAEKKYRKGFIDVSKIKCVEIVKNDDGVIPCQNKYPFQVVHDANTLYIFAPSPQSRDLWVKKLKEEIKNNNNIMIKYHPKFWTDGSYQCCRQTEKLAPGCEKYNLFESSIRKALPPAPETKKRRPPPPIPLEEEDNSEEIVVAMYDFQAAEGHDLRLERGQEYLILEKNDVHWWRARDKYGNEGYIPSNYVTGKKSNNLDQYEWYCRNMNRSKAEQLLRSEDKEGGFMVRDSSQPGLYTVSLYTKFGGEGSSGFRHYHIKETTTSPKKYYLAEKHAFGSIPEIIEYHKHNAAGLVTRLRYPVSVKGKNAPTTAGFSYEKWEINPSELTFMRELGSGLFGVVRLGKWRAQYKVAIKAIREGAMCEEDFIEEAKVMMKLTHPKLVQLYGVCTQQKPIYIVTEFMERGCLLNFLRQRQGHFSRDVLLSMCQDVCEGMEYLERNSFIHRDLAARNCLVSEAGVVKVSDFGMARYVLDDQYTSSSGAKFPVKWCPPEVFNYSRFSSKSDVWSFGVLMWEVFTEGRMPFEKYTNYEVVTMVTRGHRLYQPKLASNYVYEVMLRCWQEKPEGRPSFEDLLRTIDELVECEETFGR

[7] = target: T3, TGF-beta receptor type-1 (Homo sapiens) (UniProt P36897); experiment: Residual activity of TGFB-R1 at 1 uM by microplate scintillation counting
T3 sequence (whole entry): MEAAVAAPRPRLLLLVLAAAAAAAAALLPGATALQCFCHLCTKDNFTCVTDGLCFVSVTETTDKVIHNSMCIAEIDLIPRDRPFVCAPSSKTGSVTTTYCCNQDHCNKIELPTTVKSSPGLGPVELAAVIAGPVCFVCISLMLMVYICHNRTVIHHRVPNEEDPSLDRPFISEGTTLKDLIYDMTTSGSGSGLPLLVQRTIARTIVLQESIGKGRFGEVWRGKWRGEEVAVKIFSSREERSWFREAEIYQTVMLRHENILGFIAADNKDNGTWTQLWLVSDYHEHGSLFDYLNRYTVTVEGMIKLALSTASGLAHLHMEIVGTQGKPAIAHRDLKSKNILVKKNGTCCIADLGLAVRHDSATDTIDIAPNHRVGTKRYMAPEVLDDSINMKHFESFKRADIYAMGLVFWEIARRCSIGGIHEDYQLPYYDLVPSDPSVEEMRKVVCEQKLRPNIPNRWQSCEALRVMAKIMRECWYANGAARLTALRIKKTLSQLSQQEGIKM

[8] = target: BDNF/NT-3 growth factors receptor (Homo sapiens) (UniProt Q16620); experiment: Residual activity of TRK-B at 10 uM by microplate scintillation counting
Chain of BDNF/NT-3 growth factors receptor (Homo sapiens) (Q16620 32-822 limits assumed): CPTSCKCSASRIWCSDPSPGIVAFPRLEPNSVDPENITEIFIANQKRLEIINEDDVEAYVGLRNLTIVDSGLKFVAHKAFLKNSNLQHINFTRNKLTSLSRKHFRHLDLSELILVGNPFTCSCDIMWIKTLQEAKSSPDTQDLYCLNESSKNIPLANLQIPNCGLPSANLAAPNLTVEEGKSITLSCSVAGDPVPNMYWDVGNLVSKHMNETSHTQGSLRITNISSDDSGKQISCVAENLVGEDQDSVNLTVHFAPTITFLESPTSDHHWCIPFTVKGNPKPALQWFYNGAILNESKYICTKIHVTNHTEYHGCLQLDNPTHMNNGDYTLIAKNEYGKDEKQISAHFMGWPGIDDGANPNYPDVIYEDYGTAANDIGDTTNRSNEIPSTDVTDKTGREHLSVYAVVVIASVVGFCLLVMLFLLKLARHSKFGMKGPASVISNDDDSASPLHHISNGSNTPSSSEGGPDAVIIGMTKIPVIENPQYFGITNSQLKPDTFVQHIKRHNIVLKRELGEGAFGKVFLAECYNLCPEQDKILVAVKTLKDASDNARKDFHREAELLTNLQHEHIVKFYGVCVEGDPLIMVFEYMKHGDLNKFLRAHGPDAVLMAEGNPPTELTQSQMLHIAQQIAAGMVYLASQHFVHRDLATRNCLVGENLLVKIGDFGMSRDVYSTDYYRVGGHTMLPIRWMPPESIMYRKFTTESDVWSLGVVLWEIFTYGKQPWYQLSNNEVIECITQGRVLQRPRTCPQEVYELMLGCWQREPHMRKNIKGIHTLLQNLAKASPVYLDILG

[9] = target: T1, Tyrosine-protein kinase JAK3 (Homo sapiens); experiment: Residual activity of JAK3 at 1 uM by microplate scintillation counting
[10] = target: Macrophage colony-stimulating factor 1 receptor (Homo sapiens) (UniProt P07333); experiment: Residual activity of CSF1R at 10 uM by microplate scintillation counting
Chain of Macrophage colony-stimulating factor 1 receptor (Homo sapiens) (P07333 whole entry): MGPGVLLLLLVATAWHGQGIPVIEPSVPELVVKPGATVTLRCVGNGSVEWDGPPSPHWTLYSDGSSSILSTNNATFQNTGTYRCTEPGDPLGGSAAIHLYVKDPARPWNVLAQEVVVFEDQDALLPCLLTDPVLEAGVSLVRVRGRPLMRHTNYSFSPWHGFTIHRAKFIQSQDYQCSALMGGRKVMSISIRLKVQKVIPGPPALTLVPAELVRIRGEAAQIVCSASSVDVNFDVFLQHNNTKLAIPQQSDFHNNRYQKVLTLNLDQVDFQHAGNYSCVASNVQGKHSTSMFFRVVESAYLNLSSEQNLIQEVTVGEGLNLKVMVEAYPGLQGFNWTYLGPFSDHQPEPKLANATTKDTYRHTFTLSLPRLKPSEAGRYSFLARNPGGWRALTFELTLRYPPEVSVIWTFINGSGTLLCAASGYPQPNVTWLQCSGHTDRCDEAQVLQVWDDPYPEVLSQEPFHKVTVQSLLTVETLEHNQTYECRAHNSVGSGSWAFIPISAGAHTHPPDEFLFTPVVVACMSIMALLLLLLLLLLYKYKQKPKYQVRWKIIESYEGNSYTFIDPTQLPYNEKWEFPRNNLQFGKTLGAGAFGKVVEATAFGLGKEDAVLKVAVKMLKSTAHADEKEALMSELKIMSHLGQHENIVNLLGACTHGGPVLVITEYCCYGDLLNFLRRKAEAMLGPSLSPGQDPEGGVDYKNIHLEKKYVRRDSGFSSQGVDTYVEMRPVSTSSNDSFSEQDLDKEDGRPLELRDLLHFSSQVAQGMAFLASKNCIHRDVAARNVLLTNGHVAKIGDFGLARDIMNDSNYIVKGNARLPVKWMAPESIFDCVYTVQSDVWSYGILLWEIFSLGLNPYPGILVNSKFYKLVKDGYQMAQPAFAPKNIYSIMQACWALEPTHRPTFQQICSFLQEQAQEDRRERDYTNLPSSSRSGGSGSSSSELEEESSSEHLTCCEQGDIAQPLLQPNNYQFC

Chain of Eukaryotic translation initiation factor 2-alpha kinase 1 (Homo sapiens) (Q9BQI3 whole entry): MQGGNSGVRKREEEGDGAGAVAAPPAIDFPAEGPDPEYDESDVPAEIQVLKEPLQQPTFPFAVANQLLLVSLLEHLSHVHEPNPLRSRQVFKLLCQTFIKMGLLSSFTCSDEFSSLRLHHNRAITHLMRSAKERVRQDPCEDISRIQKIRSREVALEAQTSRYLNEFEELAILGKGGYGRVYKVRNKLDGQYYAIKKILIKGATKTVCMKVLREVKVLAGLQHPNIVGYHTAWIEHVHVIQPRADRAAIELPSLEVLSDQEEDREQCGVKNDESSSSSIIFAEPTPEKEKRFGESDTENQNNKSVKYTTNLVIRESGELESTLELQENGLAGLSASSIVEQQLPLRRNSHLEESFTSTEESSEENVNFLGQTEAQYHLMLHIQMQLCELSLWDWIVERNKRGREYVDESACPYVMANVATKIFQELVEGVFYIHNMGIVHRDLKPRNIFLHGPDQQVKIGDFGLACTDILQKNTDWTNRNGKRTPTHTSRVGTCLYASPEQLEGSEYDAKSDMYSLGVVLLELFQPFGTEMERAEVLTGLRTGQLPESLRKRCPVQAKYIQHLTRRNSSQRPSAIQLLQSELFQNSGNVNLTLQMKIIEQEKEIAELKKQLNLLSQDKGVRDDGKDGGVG

residual activity [1] | residual activity [2] | residual activity [3] | residual activity [4] | residual activity [5] | residual activity [6] | residual activity [7] | residual activity [8] | residual activity [9] | residual activity [10] | SMILES
108% | 47% | 105% | 68% | 136% | 93% | 98% | 82% | 93% | 131% | COc1cc2c(Oc3ccc(-c4nc5ccccc5s4)cc3)ncnc2cc1OCCCN1CCCC1
108% | 32% | 101% | 63% | 224% | 96% | 103% | 114% | 101% | 127% | COc1cc2c(Oc3ccc(-c4nc5ccccc5s4)cc3)ncnc2cc1OCCCN1CCN(C)CC1
87% | 26% | 98% | 53% | 194% | 90% | 107% | 69% | 92% | 55% | COc1cc2c(Oc3ccc(-c4nc5ccccc5s4)cc3F)ncnc2cc1OCCCN1CCN(C)CC1
